Assay results as given in PMC10218498, “Exploring BenzylethoxyAryl Urea Scaffolds for Multitarget Immunomodulation Therapies” (International Journal of Molecular Sciences, 2023).

Legend:
Jurkat T cells = experiment: MTT cell proliferation assay, Jurkat T cells; type: cell-based; conditions: Homo sapiens, 48 h of treatment
Description: (§1) This assay allowed us to establish the corresponding IC50 values (expressed as the concentration, in μM, at which 50% of cell viability is achieved), shown in Table 1.
(§2) In 96-well plates, 5 × 10^3 (HT-29, MCF-7, A549, HMEC-1, Jurkat, and HEK-293) cells per well were incubated with serial dilutions of the tested compounds in a total volume of 100 μL of their respective growth media. The 3-(4,5-dimethylthiazol-2-yl)-2,5-diphenyltetrazolium bromide (MTT; Sigma Chemical Co.) dye reduction assay in 96-well microplates was used. After 2 days of incubation (37 °C, 5% CO2 in a humid atmosphere), 10 μL of MTT (5 mg/mL in phosphate-buffered saline, PBS) was added to each well, and the plate was incubated for a further 3 h (37 °C). After that, the supernatant was discarded and replaced by 100 µL of DMSO to dissolve formazan crystals. The absorbance was then read at 550 nm by spectrophotometry. For all concentrations of compound, cell viability was expressed as the percentage of the ratio between the mean absorbance of treated cells and the mean absorbance of untreated cells. Three independent experiments were performed, and the IC50 values (i.e., concentration half inhibiting cell proliferation) were graphically determined using GraphPad Prism 4 software.

[1] = tested on: human microvessel endothelial cells (HMEC-1); experiment: MTT cell proliferation assay, HMEC-1; type: cell-based; conditions: 48 h of treatment
Description: as §1, §2

[2] = tested on: A-549 (pulmonary adenocarcinoma); experiment: MTT cell proliferation assay, A-549; type: cell-based, human; conditions: for IC50: Homo sapiens, A549, 48 h of treatment, read-out: IC50 A-549; for IC50 / effect on cancer cell proliferation (A-549), in words: MTT
Description: (§3) The 3-(4,5-dimethylthiazol-2-yl)-2,5-diphenyltetrazolium bromide (MTT; Sigma Chemical Co.) dye reduction assay in 96-well microplates was used. […] After that, the supernatant was discarded and replaced by 100 µL of DMSO to dissolve formazan crystals. The absorbance was then read at 550 nm by spectrophotometry. For all concentrations of compound, cell viability was expressed as the percentage of the ratio between the mean absorbance of treated cells and the mean absorbance of untreated cells. Three independent experiments were performed, and the IC50 values (i.e., concentration half inhibiting cell proliferation) were graphically determined using GraphPad Prism 4 software.

[3] = tested on: HEK-293 (human embryonic kidney cells); experiment: MTT cell proliferation assay, HEK-293; type: cell-based; conditions: HEK293, 48 h of treatment
Description: as §1, §2

[4] = tested on: HT-29 (colon adenocarcinoma); experiment: MTT cell proliferation assay, HT-29; type: cell-based, human; conditions: for IC50: Homo sapiens, HT-29, 48 h of treatment, read-out: IC50 HT-29; for IC50 / effect on cancer cell proliferation (HT-29), in words: MTT
Description: as §3

Fyn = experiment: Immunoblotting of OT-1 CTL signaling proteins: FYN; type: cell-based, mice; conditions: OT-1, 20 μM, 24 h
Source text: (§4) We next studied the effect of our compounds on the signaling cascade downstream of the TCR. […] However, both the expression and phosphorylation of LCK were increased in response to all compounds. The effects on ZAP70 and LAT were more complex, with opposing effects on total protein expression versus phosphorylation. Thus, all compounds modulated signaling downstream of the TCR in a manner that is likely to impact T-cell activation and activity.
(§5) CD8+ cells were obtained from the inguinal, axillary, brachial, and mesenteric lymph nodes previously collected from OT-1 mice. Lymph node cells were isolated by mashing through a […] cell strainer. Cells were resuspended in IMDM cell media at a concentration of 0.3 million cells/mL. N4 ovalbumin peptide was added at a concentration of 10 nM, and cells were incubated for 48 h at 5% CO2, 37 °C. On day 2 from recollection, cells were pelleted at 1300 rpm for 5 min and washed with PBS to remove N4 peptide. The cell pellet was resuspended in fresh IMDM media in a new flask in a 0.3 million cells/mL and supplemented with IL-2 at 20 ng/mL. After incubation for a further 48 h (day 4), cells were re-seeded in fresh IMDM media at a concentration of 0.3 million cells/mL supplemented with IL-2 at 20 ng/mL. Cells were cultured for a further 48 h prior to use on day 6 in functional assays.
(§6) To study the effect of the compounds in the signaling pathway of CTLs, the compound was incubated for 24 h at 20 μM. After this time, cells were collected and washed twice in PBS and lysed in radioimmunoprecipitation assay (RIPA) lysis buffer (50 mM tris-HCl at pH 7.4, 150 mM sodium chloride, 5 mM EGTA, 0.1% SDS, 1% NP-40, and 1% deoxycholate) supplemented with a protease and phosphatase inhibitor cocktail (mini complete ULTRA Protease tablet and phosSTOP tablet from Roche, Basel, Switzerland). Lysates were clarified by high-speed centrifugation (17,000 rpm for 15 min at 4 °C). Protein concentration was measured using a Micro BCA Protein Assay (Thermo Scientific, Waltham, MA, USA), and 10 μg to 30 μg of total protein were supplemented with 2X SDS sample buffer [tris (pH 6.8), 20% glycerol, 5% SDS, b-mercaptoethanol, and bromophenol blue) and boiled at 95 °C for 5 min. […] Bound Ab was detected by incubation with anti-rabbit and anti-mouse horseradish peroxidase secondary Ab (Cell Signaling Technology) and visualized using the Bio-Rad ChemiDoc MP Imaging System.

LCK = experiment: Immunoblotting of OT-1 CTL signaling proteins: LCK; type: cell-based, mice; conditions: OT-1, 20 μM, 24 h
Source text: as §4, §5, §6

[5] = tested on: HMEC-1 microtube formation; experiment: Tube formation inhibition assay on Matrigel; type: cell-based, human; conditions: HMEC-1 on Matrigel, 24 h
Description: The capacity to inhibit the formation of a new vasculature network formed by HMEC-1 was evaluated on compounds 8 and 14 at different concentrations.
Wells of an IBIDI μ-slide angiogenesis (IBIDI, Martinsried, Germany) were coated with 15 μL of Matrigel® (10 mg/mL, BD Biosciences) at 4 °C. After gelatinization at 37 °C for 30 min, HMEC-1 cells were seeded at 2 × 10^4 cells/well in 25 μL of culture medium on top of the Matrigel and were incubated 30 min at 37 °C while are attached. Then, compounds were added and dissolved in 25 μL of culture medium, and after 24 h of incubation at 37 °C, tube formation was evaluated.

PD-L1 [6] = target: T1, PD-L1 (Homo sapiens, UniProt Q9NZQ7); experiment: PD-L1 relative quantification by flow cytometry in HT-29; type: cell-based; parameters: endogenous in cells; host or cells: HT-29; conditions: HT-29, 20 µM, 24 h, relative to DMSO control = 100
T1 sequence (Q9NZQ7 19-290): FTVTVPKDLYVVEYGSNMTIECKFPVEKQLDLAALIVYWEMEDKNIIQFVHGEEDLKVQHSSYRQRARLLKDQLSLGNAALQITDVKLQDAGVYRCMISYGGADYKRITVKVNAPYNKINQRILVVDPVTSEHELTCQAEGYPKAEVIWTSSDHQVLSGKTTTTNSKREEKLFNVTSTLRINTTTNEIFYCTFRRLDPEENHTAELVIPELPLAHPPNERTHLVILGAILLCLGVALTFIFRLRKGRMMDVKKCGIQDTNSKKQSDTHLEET
Description: (§7) To assess the effect of the selected compounds on the biological targets PD-L1 and VEFGR-2, we performed the study on both cancer cell lines HT-29 and A-549 and by flow cytometry technique. […] For these assays, cells were incubated for 24 h in the presence of the corresponding compounds at 20 µM concentration.
(§8) To study the effect of the compounds on every biological target in cancer cell lines, the compounds were used at 20 µM dose.
(§9) For the assay, 10^5 cells per well were incubated for 24 h with the corresponding dose of the tested compound in a total volume of 500 μL of their growth media.
(§10) On the one hand, to detect total PD-L1 and VEGFR-2, after the cell treatments, they were collected and fixed with 4% in PBS paraformaldehyde. After fixation, a treatment with 0.5% in PBS TritonTM X-100 was performed, and finally, cells were stained with FITC Mouse monoclonal Anti-Human VEGFR-2 (ab184903) and Alexa Fluor® 647 Rabbit monoclonal Anti-PD-L1 (ab215251).
(§11) On the other hand, to detect membrane PD-L1 and VEGFR-2, the process was the same, avoiding the treatment with 0.5% in PBS TritonTM X-100 step.

PD-L1 [7] = target: T1, PD-L1; experiment: PD-L1 relative quantification by flow cytometry in MCF-7; type: cell-based; parameters: endogenous in cells; host or cells: MCF-7; conditions: MCF-7, 20 µM, 24 h, control = 100
Description: In view of the good results obtained for these selected compounds, we decided to extend the study to a third cancer cell line, MCF-7 (Human breast cancer adenocarcinoma). First, we determined the IC50 values of the derivatives and their SI indexes (see Table 4). Then, we determined the effect of the selected compounds on the biological targets, PD-L1 and VEGFR-2, by flow cytometry. […] As usually, the assay was performed at a concentration of 20 µM for 24 h.
as §8, §9, §10, §11

PD-L1 [8] = target: T1, PD-L1; experiment: PD-L1 relative quantification by flow cytometry in A-549; type: cell-based; parameters: endogenous in cells; host or cells: A-549; conditions: A-549, 20 µM, 24 h, relative to DMSO control = 100
Description: as §7, §8, §9, §10, §11

[9] = tested on: MCF-7 (Human breast cancer adenocarcinoma); experiment: MTT cell proliferation assay, MCF-7; type: cell-based; conditions: Homo sapiens, MCF7; MTT; read-out: IC50 (μM) MCF-7
Description: as §3

SMILES | IC50 (Jurkat T cells) | IC50 [2] | IC50 [4] | melting point | IC50 [1] | effect on cancer cell proliferation (A-549), in words [2] | IC50 [3] | effect on cancer cell proliferation (HT-29), in words [4] | also measured
COc1ccc(COc2cccc(NC(=O)Nc3ccccc3F)c2)cc1 [Compound 4] | > 100 µM | > 100 µM | > 100 µM | 185 to 186 °C | > 100 µM | no effect | 16 ± 4 µM | no effect | –
CCN(CC)CCNC(=O)c1c(C)[nH]c(/C=C2\C(=O)Nc3ccc(F)cc32)c1C [Sunitinib, sunitinib, reference compound] | – | – | – | – | – | – | – | – | Minimum Active Conc. (inhibition of microtube formation) [5]: 3 µM
COc1ccc(COc2cccc(NC(=O)Nc3ccc(Cl)cc3)c2)cc1 [Compound 5] | > 100 µM | 15 ± 2 µM | 12 ± 4 µM | – | > 100 µM | – | > 100 µM | – | SI (A-549) (IC50HEK293/A-549) ([2]; selectivity index): >7; SI (HT-29) (IC50HEK293/IC50HT-29) ([4]; selectivity index): >8
COc1ccc(COc2cccc(NC(=O)Nc3ccccc3)c2)cc1 [Compound 1] | > 100 µM | 6 ± 3 µM | 21 ± 10 µM | – | > 100 µM | – | 1.4 ± 0.2 µM | – | –
COc1ccc(COc2cccc(NC(=O)Nc3cccc(F)c3)c2)cc1 [Compound 3] | > 100 µM | > 100 µM | > 100 µM | 202 to 203 °C | > 100 µM | no effect | 3.7 ± 0.8 µM | no effect | –

The next lines start with results.

IC50 (Jurkat T cells) | IC50 [2] | IC50 [4] | melting point | SMILES | IC50 [1] | effect on cancer cell proliferation (A-549), in words [2] | IC50 [3] | effect on cancer cell proliferation (HT-29), in words [4] | also measured
> 100 µM | > 100 µM | 38 ± 15 µM | – | COc1ccc(COc2cccc(NC(=O)Nc3cccc(Cl)c3)c2)cc1 [Compound 6] | > 100 µM | – | 3.3 ± 0.5 µM | only active in HT-29 | –
> 100 µM | 48 ± 3 µM | 50 ± 4 µM | 183.4 °C | COc1ccc(COc2cccc(NC(=O)Nc3ccccc3Cl)c2)cc1 [Compound 7] | > 100 µM | – | 27 ± 9 µM | – | –
> 100 µM | 3.9 ± 0.4 µM | 25 ± 2 µM | 198.5 °C | COc1ccc(COc2cccc(NC(=O)Nc3cccc(Br)c3)c2)cc1 [Compound 9] | > 100 µM | – | 0.7 ± 0.3 µM | – | FYN protein expression (Western blot quantification) (Fyn): 108; LCK protein expression (Western blot quantification) (LCK): 180; pY394-LCK protein expression (Western blot quantification) (LCK): 175; pY505-LCK protein expression (Western blot quantification) (LCK): 154
> 100 µM | > 100 µM | > 100 µM | 137.5 to 168.9 °C | COc1ccc(COc2cccc(NC(=O)Nc3cccc(OC)c3)c2)cc1 [Compound 12] | > 100 µM | no effect | 12 ± 1 µM | no effect | –
> 100 µM | 25 ± 1 µM | 41 ± 5 µM | 198.5 °C | COc1ccc(COc2cccc(NC(=O)Nc3ccccc3Br)c2)cc1 [Compound 10] | > 100 µM | – | 8.7 ± 0.7 µM | – | –
– | 27 ± 2 µM | 17 ± 4 µM | – | CNC(=O)c1cc(Oc2ccc(NC(=O)Nc3ccc(Cl)c(C(F)(F)F)c3)cc2)ccn1 [Sorafenib, sorafenib, reference compound] | 34 ± 3 µM | – | 5 ± 0.7 µM | – | Total PD-L1 (%) (PD-L1 [6]): 96 ± 49%; % PD-L1 Memb. (PD-L1 [7]): 89 ± 2%; % PD-L1 Total (PD-L1 [7]): 80 ± 13%; Minimum Active Conc. (inhibition of microtube formation) [5]: 10 µM; Total PD-L1 (%) (PD-L1 [8]): 102 ± 10%; IC50 [9]: 14 ± 4 µM
> 100 µM | > 100 µM | > 100 µM | 160 to 161.6 °C | COc1ccc(COc2cccc(NC(=O)Nc3ccccc3OC)c2)cc1 [Compound 13] | > 100 µM | no effect | > 100 µM | no effect | –
